# From article PMC11415492 (Nature Communications, 2024)
# “And” between values parts separate entries of the source, which are not always exact repeats. Equal entries are not always repeated. Structures can show the parent of a compound that is named as a salt.
# Legend:
# h5-HT2A = h5-HT2A (Homo sapiens, UniProt P28223); assay: IP1 functional assay, agonist; type: cell-based; details: up to 10 µM
# mMOR = target: T1, mMOR (Mus musculus, UniProt P42866); assay: G protein activation BRET assay; type: cell-based; details: for Fig. S5h concentration-response data point: Log [Drug], single replicate values
# T1 construct: expressed in transfected cells; host or cells: HEK-293T, transient (PEI)
# in vitro = details: human, pH 7.4
# hMOR = hMOR (Homo sapiens, UniProt P35372); assay: cell-based
# hSERT = target: T2, hSERT (Homo sapiens, UniProt P31645); assay: hSERT inhibition assay (APP+ fluorescence uptake); type: cell-based
# T2 construct: expressed in transfected cells
# Description: Stably transfected hSERT-HEK cellular cultures were maintained in Dulbecco’s Minimal Essential Medium (DMEM) with GlutaMAX (Gibco-Thermo Fisher Scientific, Waltham, MA) with the following additions: 10% (v/v) Fetal Bovine Serum (FBS, Atlanta Biologicals, Flowery Branch, GA), 100 U/mL Penicillin 10 μg/mL Streptomycin (Gibco-Thermo Fisher Scientific, Waltham, MA), and 500 μg/mL Geneticin (G418) (Sigma Aldrich, St. Louis, MO). Singly transfected cells were seeded at a density of 0.09 × 10^6 cells/well in poly-D-Lysine (Sigma Aldrich, St. Louis, MO) coated white solid-bottom 96-well plates (Greiner Bio-One, Kremsmünster, Austria). Cells were grown for 44 h in aqueous media at 37 °C under 5% CO2 atmosphere. […] A final solution of 120 μL of PBS was finally added to all corresponding wells for cell maintenance before measuring fluorescence uptake (BioTek H1MF plate reader (BioTek Instruments, Winooski, VT), APP+ excitation and emission wavelengths 436 and 500 nm). Recorded inhibitor values were first subtracted from vehicular values to quantify the respective fluorescence uptake. Data were analyzed using the dose-response-inhibitor nonlinear curve fitting model (log[inhibitor] vs response (four parameters) in Graphpad Prism 10 (Graphpad Software, La Jolla, CA).
# rKOR = target: T3, rKOR (Rattus norvegicus, UniProt P34975); assay: G protein activation BRET assay (GαoB); type: cell-based; details: for EC50: HEK-293T
# T3 construct: signal peptide (N); expressed in transfected cells; host or cells: HEK-293T, transient (PEI)
# male Fisher F-344 rats = assay: Morphine intravenous self-administration; type: in vivo, rat; details: for self-administration per session, individual animals (Fig. S9a): 40 mg/kg
# hKOR = target: T4, hKOR (Homo sapiens, UniProt P41145); assay: G protein activation BRET assay; type: cell-based; details: for response, Fig. S5b concentration-response point (replicates): Log [Drug]
# T4 construct: expressed in transfected cells; host or cells: HEK-293T, transient (PEI)
# T4 sequence (P41145 whole entry): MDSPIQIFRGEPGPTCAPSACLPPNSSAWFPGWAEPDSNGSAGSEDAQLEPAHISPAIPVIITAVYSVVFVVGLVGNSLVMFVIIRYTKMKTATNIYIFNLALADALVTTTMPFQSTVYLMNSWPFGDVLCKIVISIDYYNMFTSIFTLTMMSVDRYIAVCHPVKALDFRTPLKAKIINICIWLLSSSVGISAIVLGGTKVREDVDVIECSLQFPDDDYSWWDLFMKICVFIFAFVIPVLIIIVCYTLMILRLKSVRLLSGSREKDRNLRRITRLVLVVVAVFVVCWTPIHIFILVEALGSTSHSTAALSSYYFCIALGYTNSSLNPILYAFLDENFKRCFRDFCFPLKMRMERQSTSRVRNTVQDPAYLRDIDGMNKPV
# T3 sequence (P34975 whole entry): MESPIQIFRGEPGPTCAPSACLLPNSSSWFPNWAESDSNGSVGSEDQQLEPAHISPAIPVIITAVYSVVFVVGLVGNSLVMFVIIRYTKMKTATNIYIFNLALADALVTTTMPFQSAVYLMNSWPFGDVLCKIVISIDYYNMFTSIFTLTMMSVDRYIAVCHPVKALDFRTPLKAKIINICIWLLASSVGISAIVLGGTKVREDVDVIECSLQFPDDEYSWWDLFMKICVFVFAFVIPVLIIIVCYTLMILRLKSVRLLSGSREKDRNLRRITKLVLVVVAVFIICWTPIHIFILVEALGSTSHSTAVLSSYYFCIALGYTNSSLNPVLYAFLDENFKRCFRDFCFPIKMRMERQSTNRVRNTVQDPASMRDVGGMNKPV
# T1 sequence (P42866 whole entry): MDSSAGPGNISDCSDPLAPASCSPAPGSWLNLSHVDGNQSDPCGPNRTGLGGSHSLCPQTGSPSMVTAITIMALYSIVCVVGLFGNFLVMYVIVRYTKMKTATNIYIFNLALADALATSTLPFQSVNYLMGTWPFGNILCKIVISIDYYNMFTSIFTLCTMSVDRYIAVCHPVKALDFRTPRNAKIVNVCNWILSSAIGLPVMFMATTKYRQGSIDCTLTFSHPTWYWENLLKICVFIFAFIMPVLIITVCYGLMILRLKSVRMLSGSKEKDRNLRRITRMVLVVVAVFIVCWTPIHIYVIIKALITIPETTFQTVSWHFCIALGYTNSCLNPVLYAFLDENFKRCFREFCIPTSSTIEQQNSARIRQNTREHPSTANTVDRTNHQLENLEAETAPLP
# hMOR, sequence (P35372 whole entry): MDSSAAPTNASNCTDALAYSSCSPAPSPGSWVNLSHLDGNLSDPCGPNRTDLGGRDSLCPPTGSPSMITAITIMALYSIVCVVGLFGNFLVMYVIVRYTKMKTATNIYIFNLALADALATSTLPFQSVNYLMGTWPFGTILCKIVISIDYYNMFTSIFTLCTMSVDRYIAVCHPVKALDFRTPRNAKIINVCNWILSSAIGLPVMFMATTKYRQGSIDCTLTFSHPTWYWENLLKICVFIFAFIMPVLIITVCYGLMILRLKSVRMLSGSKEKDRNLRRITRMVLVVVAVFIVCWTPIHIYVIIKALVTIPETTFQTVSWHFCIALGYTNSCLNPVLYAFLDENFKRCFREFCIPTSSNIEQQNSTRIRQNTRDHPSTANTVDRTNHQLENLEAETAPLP
# T2 sequence (P31645 whole entry): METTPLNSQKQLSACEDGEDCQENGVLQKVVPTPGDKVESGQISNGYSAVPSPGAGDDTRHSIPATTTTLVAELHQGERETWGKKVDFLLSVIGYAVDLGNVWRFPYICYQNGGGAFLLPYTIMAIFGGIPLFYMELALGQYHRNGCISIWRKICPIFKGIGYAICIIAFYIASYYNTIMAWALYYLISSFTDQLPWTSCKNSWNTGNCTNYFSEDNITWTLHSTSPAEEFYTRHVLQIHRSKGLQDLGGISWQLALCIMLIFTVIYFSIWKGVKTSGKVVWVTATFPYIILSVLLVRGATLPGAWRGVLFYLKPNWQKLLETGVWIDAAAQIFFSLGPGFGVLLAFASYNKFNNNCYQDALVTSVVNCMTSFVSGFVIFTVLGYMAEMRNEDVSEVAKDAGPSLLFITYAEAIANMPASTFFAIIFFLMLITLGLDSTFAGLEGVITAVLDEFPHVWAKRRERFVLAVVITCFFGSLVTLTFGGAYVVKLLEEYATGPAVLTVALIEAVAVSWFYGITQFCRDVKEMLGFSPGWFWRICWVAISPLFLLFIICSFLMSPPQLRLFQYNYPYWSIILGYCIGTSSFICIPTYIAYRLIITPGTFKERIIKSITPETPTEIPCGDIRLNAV
# h5-HT2A, sequence (P28223 whole entry): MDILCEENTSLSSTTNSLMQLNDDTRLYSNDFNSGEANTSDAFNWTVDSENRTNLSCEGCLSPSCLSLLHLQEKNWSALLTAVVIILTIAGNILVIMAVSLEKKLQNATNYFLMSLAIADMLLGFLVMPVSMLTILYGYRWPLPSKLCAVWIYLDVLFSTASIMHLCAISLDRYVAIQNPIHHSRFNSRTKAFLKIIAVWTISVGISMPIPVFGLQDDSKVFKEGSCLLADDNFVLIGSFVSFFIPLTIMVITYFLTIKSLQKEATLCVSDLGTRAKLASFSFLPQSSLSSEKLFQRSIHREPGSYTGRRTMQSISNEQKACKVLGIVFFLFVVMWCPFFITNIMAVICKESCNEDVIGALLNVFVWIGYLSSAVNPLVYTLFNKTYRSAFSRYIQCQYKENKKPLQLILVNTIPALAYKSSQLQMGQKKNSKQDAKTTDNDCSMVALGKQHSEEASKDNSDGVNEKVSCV
compound,measurement,setting,value
"CCC1CC2CC3c4[nH]c5ccc(O)cc5c4CCN(C2)C13 (stereo not shown) [Noribogaine, Noribogaine hydrochloride]",agonist activity at h5-HT2R,h5-HT2A,No agonist activity
same,Emax,mMOR,19%
same,EC50,mMOR; (95% CI),9.11 µM
same,Fig. S5h concentration-response data point,mMOR; M = -4,24.8885 and 26.6264 and 27.7428 and 17.4963 and -8.212 and 30.4244 and 10.6283 and 6.222 and 21.9832
same,Fig. S5h concentration-response data point,mMOR; M = -5,8.23 and 17.0849 and 17.7259 and 22.4715 and 22.153 and 9.821 and 3.187 and 0.3566 and 4.1
same,Fig. S5h concentration-response data point,mMOR; M = -6,4.604 and 7.207 and -5.062 and 6.292 and -3.562 and -1.853 and 2.1627 and 6.968 and -3.361
same,Fig. S5h concentration-response data point,mMOR; M = -7,5.516 and -3.12 and 0.3751 and -1.392 and 9.617 and 0.0554 and -3.657 and -2.623 and -4.7725
same,Fig. S5h concentration-response data point,mMOR; M = -8,2.807 and -9.751 and -4.108 and 4.434 and 1.624 and 11.894 and 1.215 and 7.908 and -0.803
same,Fig. S5h concentration-response data point,mMOR; M = -9,3.672 and 14.0917 and -2.71 and 1.993 and 2.042 and -8.571 and -5.966 and 3.235 and -0.5438
same,Fig. S5h concentration-response data point,mMOR; M = -10,5.694 and 7.45 and -0.02465 and -4.39 and 8.693 and -12.0081 and -1.935 and 3.572 and 2.108
same,Fig. S5h concentration-response data point,mMOR; M = -11,0.01325 and 7.439 and 24.776 and 1.616 and -6.541 and -6.127 and 16.1632 and 10.3257 and 7.821
same,"recovery at 4 h, 5 µM",in vitro,75%
same,fraction unbound,in vitro; plasma,0.401
same,EC50,hMOR,11.1 µM
same,Emax,hMOR,57%
same,Emax,hSERT,104%
same,EC50,rKOR,6.1 µM
same,EC50,rKOR; (95% CI),6.24 µM
same,Emax,"rKOR; normalized to Emax of U-50,488",52%
same,effect on morphine self-administration,male Fisher F-344 rats; 40 mg/kg i.p.,"partial, but statistically significant, suppression of morphine intake on days 2 and 3, returning to pre-treatment level of morphine intake on day 5"
same,"self-administration per session, individual animals (Fig. S9a)",male Fisher F-344 rats; session 1,0 (2×) and 4 (2×) and 8 and 6 (2×) and 2
same,"self-administration per session, individual animals (Fig. S9a)",male Fisher F-344 rats; session 2,7 and 19 and 24 and 41 and 27 (2×) and 15 (2×)
same,"self-administration per session, individual animals (Fig. S9a)",male Fisher F-344 rats; session 3,17 and 21 and 50 and 28
same,"self-administration per session, individual animals (Fig. S9a)",male Fisher F-344 rats; session 5,49 and 40 and 50 (2×) and 36 (2×) and 31 and 21
same,"self-administration per session, individual animals (Fig. S9a)",male Fisher F-344 rats; session 6,50 (5×) and 42 and 26 and 19
same,"self-administration per session, individual animals (Fig. S9a)",male Fisher F-344 rats; session 7,29 (2×) and 15 and 50 (4×) and 17
same,"self-administration per session, individual animals (Fig. S9a)",male Fisher F-344 rats; session 8,30 (2×) and 50 (4×) and 28 and 26
same,"self-administration per session, individual animals (Fig. S9a)",male Fisher F-344 rats; session 9,26 and 35 and 50 (3×) and 22 and 28 and 13
same,"self-administration per session, individual animals (Fig. S9a)",male Fisher F-344 rats; session 10,34 and 25 and 50 (3×) and 20 and 41 and 14
same,"self-administration per session, individual animals (Fig. S9a)",male Fisher F-344 rats; session 11,33 and 19 and 50 (3×) and 9 and 26 and 3
same,"self-administration per session, individual animals (Fig. S9a)",male Fisher F-344 rats; session 12,50 (5×) and 14 and 40 and 19
same,"self-administration per session, individual animals (Fig. S9a)",male Fisher F-344 rats; session 13,50 (3×) and 23 and 33 and 28
same,"self-administration per session, individual animals (Fig. S9a)",male Fisher F-344 rats; session 14,50 (3×) and 21 and 38 and 17
same,"self-administration per session, individual animals (Fig. S9a)",male Fisher F-344 rats; session 15,50
same,"response, Fig. S5b concentration-response point (replicates)",hKOR; M = -4,63.4148 and 52.568 and 43.4303 and -3.268 and 15.5992 and -3.578 and 46.3729 and 68.2306 and 65.5059
same,"response, Fig. S5b concentration-response point (replicates)",hKOR; M = -5,44.129 and 7.591 and 58.3969 and -7.944 and -3.52 and -16.5221 and 8.861 and 66.0772 and 47.0286
same,"response, Fig. S5b concentration-response point (replicates)",hKOR; M = -6,20.3519 and 3.61 and -1.914 and -21.4522 and 4.635 and -8.327 and 2.307 and 50.686 and 6.38
same,"response, Fig. S5b concentration-response point (replicates)",hKOR; M = -7,-3.613 and 22.2417 and 10.4815 and -11.7203 and -7.426 and -8.634 and -0.3969 and 6.635 and -33.8028
same,"response, Fig. S5b concentration-response point (replicates)",hKOR; M = -8,-6.02 and -4.0285 and -3.934 and -14.0445 and 2.721 and -12.2464 and 2.029 and -16.111 and -2.683
same,"response, Fig. S5b concentration-response point (replicates)",hKOR; M = -9,5.431 and -20.2939 and -8.392 and 0.6992 and -6.586 and -12.3198 and -2.633 and 36.0973 and 2.925
same,"response, Fig. S5b concentration-response point (replicates)",hKOR; M = -10,4.023 and 14.614 and -14.1911 and -26.8111 and -11.2252 and 12.0579 and -0.5811 and 6.156 and 9.5717
same,"response, Fig. S5b concentration-response point (replicates)",hKOR; M = -11,-10.3398 and -7.2943 and -10.3521 and -20.7885 and 4.252 and -10.5358 and -2.026 and -5.486 and -20.474
same,Emax,"hKOR; normalized to Emax of U-50,488",46%
